# According to patent US20220062379A1, “METHODS AND COMPOSITIONS FOR MODULATING IMMUNE DYSREGULATION” (The General Hospital Corporation, priority 2019, published 2022):
# Experiments:
# [1] = tested on: IL1β; experiment: Whole blood cytokine release, IL-1β (ELISA); format: cell-based; conditions: diluted human whole blood, LPS 1.5 ng/ml, 18 h, mean ± 95% confidence intervals; for inhibition at 25 µM / inhibition at 50 µM / inhibition at 100 µM: read-out: % Inhibition of cytokine release, relative to vehicle: IL1β
# Procedure: (§1) Fresh, anonymized, heparinized, human blood from male donors was diluted 1:3 with RPMI containing penicillin and streptomycin. 150 μl diluted blood was added to each well of a 96 well plate then acclimatized to 37° C. and 5% CO2 for 1 hour. Inhibitors were prepared as described below then added to the diluted blood in 25 μl volume. After a further hour at 37° C. with 5% CO2, diluted blood was stimulated with LPS diluted in 25 μl RPMI containing penicillin and streptomycin to a final concentration of 1.5 ng/ml. After 18 h at 37° C. and 5% CO2, diluted blood was centrifuged at 500×g for 5 min and supernatant collected and stored at −20° C. until ELISAs were performed. Data are presented as mean inhibition relative to vehicle control ±95% confidence intervals, n=3-4 independent experiments.
# (§2) Inhibitors and vehicles used for resuspension were: Compound 26, EMD Millipore, Cat #5.31237.0001, resuspended in DMSO; PF 06650833, R & D Systems, Cat #6373, resuspended in DMSO; OEPC (oleyloxyethyl phosphorylcholine), Santa Cruz Biotechnology, item # sc-200711, resuspended in DMSO; YM26734, Santa Cruz Biotechnology, item # sc-204410, resuspended in DMSO; Isoquercetin, Cayman Chemical, item #24926, resuspended in DMSO; ISA-2011B, Medchem Express, cat # HY-16937, resuspended in DMSO; Benzamil, TOCRIS, Cat #3380/10, resuspended in water; Cell permeable NFAT inhibitor (11R-VIVIT), Tocris, Cat #5710, resuspended in PBS. ELISAs were performed using Duoset reagents from R&D systems, catalogue # DY210 (human TNF), # DY206 (human IL6), and #DY201 (human IL-1β).
# [2] = tested on: IL6; experiment: Whole blood cytokine release, IL6 (ELISA); format: cell-based; conditions: diluted human whole blood, LPS 1.5 ng/ml, 18 h, mean ± 95% confidence intervals; for inhibition at 25 µM / inhibition at 50 µM / inhibition at 100 µM: read-out: % Inhibition of cytokine release, relative to vehicle: IL6
# Procedure: as §1, §2
# [3] = tested on: TNF; experiment: Whole blood cytokine release, TNF (ELISA); format: cell-based; conditions: diluted human whole blood, LPS 1.5 ng/ml, 18 h, mean ± 95% confidence intervals; for inhibition at 25 µM / inhibition at 50 µM / inhibition at 100 µM: read-out: % Inhibition of cytokine release, relative to vehicle: TNF
# Procedure: as §1, §2
# [4] = tested on: proinflammatory cytokine release; experiment: Whole blood cytokine release assay, cytokines not itemised; format: cell-based, human; conditions: for Effect on (proinflammatory) cytokine release in whole blood assay (in words): in response to LPS stimulation
# Procedure: as §1, §2
# Where direct chemical modulators of the proposed inflammatory modulators were available, we tested their effect on endothelial permeability using ECIS and/or on the leukocyte inflammatory response using the whole blood assay described above.
# Agents used were SJ000291942 (Sigma #SML2087-5MG) and saxagliptin (Santa Cruz Biotechnology #sc-473161), both resuspended in DMSO.
# [5] = target: NFATC2 (Nuclear Factor Of Activated T Cells 2) (human)
compound,measurement,setting,value
11R-VIVIT,"% Inhibition of cytokine release, relative to vehicle: IL1β",[1]; 12.5 μM,32% ± 13.0%
same,"% Inhibition of cytokine release, relative to vehicle: IL1β",[1]; 25 μM,48% ± 27.4%
same,"% Inhibition of cytokine release, relative to vehicle: IL1β",[1]; 50 μM,51% ± 26.3%
same,"% Inhibition of cytokine release, relative to vehicle: IL6",[2]; 12.5 μM,−10% ± 16.7%
same,"% Inhibition of cytokine release, relative to vehicle: IL6",[2]; 25 μM,2% ± 32.9%
same,"% Inhibition of cytokine release, relative to vehicle: IL6",[2]; 50 μM,87% ± 17.9%
same,"% Inhibition of cytokine release, relative to vehicle: TNF",[3]; 12.5 μM,23% ± 12.2%
same,"% Inhibition of cytokine release, relative to vehicle: TNF",[3]; 25 μM,40% ± 7.1%
same,"% Inhibition of cytokine release, relative to vehicle: TNF",[3]; 50 μM,79% ± 14.3%
NC(=NCc1ccccc1)NC(=O)c1nc(Cl)c(N)nc1N [Benzamil],inhibition at 25 µM,[1]; 25 μM,32%
same,inhibition at 50 µM,[1]; 50 μM,48%
same,inhibition at 100 µM,[1]; 100 μM,60%
same,inhibition at 25 µM,[2]; 25 μM,11%
same,inhibition at 50 µM,[2]; 50 μM,22%
same,inhibition at 100 µM,[2]; 100 μM,65%
same,inhibition at 25 µM,[3]; 25 μM,4%
same,inhibition at 50 µM,[3]; 50 μM,23%
same,inhibition at 100 µM,[3]; 100 μM,69%
CN1CC(=O)N2[C@H](c3c[nH]c4ccc(Cl)cc34)c3cc4c(cc3C[C@H]2C1=O)OCO4 [ISA-2011B],"% Inhibition of cytokine release, relative to vehicle: IL1β",[1]; 1 μM,17% ± 9%
same,"% Inhibition of cytokine release, relative to vehicle: IL1β",[1]; 10 μM,23% ± 6%
same,"% Inhibition of cytokine release, relative to vehicle: IL1β",[1]; 100 μM,86% ± 2.9%
same,Effect on (proinflammatory) cytokine release in whole blood assay (in words),[4],inhibits cytokine release
same,"% Inhibition of cytokine release, relative to vehicle: IL6",[2]; 1 μM,−7% ± 7.7%
same,"% Inhibition of cytokine release, relative to vehicle: IL6",[2]; 10 μM,6% ± 19.7%
same,"% Inhibition of cytokine release, relative to vehicle: IL6",[2]; 100 μM,24% ± 19.5%
same,"% Inhibition of cytokine release, relative to vehicle: TNF",[3]; 1 μM,1% ± 11.2%
same,"% Inhibition of cytokine release, relative to vehicle: TNF",[3]; 10 μM,17% ± 7.6%
same,"% Inhibition of cytokine release, relative to vehicle: TNF",[3]; 100 μM,55% ± 8.8%
"O=c1c(O[C@@H]2O[C@H](CO)[C@@H](O)[C@H](O)[C@H]2O)c(-c2ccc(O)c(O)c2)oc2cc(O)cc(O)c12 [Isoquertecin, Isoquercetin]",inhibition at 25 µM,[1]; 25 μM,15%
same,inhibition at 50 µM,[1]; 50 μM,25%
same,inhibition at 100 µM,[1]; 100 μM,19%
same,inhibition at 25 µM,[2]; 25 μM,26%
same,inhibition at 50 µM,[2]; 50 μM,31%
same,inhibition at 100 µM,[2]; 100 μM,26%
same,inhibition at 25 µM,[3]; 25 μM,9%
same,inhibition at 50 µM,[3]; 50 μM,23%
same,inhibition at 100 µM,[3]; 100 μM,29%
CCCCCCCCCCCCCCCCCCc1ccc(C(=O)/C=C/C(=O)O)cc1 [OBAA],Effect on (proinflammatory) cytokine release in whole blood assay (in words),[4],dose-dependent inhibition
"CCCCCCCC/C=C\CCCCCCCCOCCOP(=O)([O-])OCC[N+](C)(C)C [OEPC, oleyloxyethyl phosphorylcholine]","% Inhibition of cytokine release, relative to vehicle: IL6",[2]; 12.5 μM,−3% ± 17.6%
same,"% Inhibition of cytokine release, relative to vehicle: IL6",[2]; 25 μM,39% ± 14.1%
same,"% Inhibition of cytokine release, relative to vehicle: IL6",[2]; 50 μM,65% ± 11.7%
same,"% Inhibition of cytokine release, relative to vehicle: IL6",[2]; 100 μM,83% ± 6.2%
same,"% Inhibition of cytokine release, relative to vehicle: TNF",[3]; 12.5 μM,−9% ± 17.3%
same,"% Inhibition of cytokine release, relative to vehicle: TNF",[3]; 25 μM,6% ± 17.4%
same,"% Inhibition of cytokine release, relative to vehicle: TNF",[3]; 50 μM,37% ± 14.7%
same,"% Inhibition of cytokine release, relative to vehicle: TNF",[3]; 100 μM,57% ± 6.5%
CCc1ccc(OCC(=O)Nc2ccc(F)c([N+](=O)[O-])c2)cc1 [SJ000291942],Proinflammatory cytokine secretion from whole blood (in words),"[4]; whole blood with and without LPS, BMP receptor signaling agonist, FIG. 81C",enhances proinflammatory cytokine secretion
CCCCCCCCCCCC(=O)c1c(O)c(C(=O)CCCCCCCCCCC)c(O)c(C2CC(c3ccc(O)cc3)Oc3cc(O)ccc32)c1O (stereo not shown) [YM26734],"% Inhibition of cytokine release, relative to vehicle: IL1β",[1]; 12.5 μM,51% ± 12.0%
same,"% Inhibition of cytokine release, relative to vehicle: IL1β",[1]; 25 μM,65% ± 3.5%
same,"% Inhibition of cytokine release, relative to vehicle: IL1β",[1]; 50 μM,73% ± 11.3%
same,"% Inhibition of cytokine release, relative to vehicle: IL1β",[1]; 100 μM,78% ± 8.9%
same,Effect on (proinflammatory) cytokine release in whole blood assay (in words),[4],dose-dependent inhibition
same,"% Inhibition of cytokine release, relative to vehicle: IL6",[2]; 12.5 μM,35% ± 18.8%
same,"% Inhibition of cytokine release, relative to vehicle: IL6",[2]; 25 μM,51% ± 29.5%
same,"% Inhibition of cytokine release, relative to vehicle: IL6",[2]; 50 μM,67% ± 21.7%
same,"% Inhibition of cytokine release, relative to vehicle: IL6",[2]; 100 μM,67% ± 15.1%
same,"% Inhibition of cytokine release, relative to vehicle: TNF",[3]; 12.5 μM,41% ± 17.6%
same,"% Inhibition of cytokine release, relative to vehicle: TNF",[3]; 25 μM,55% ± 22.6%
same,"% Inhibition of cytokine release, relative to vehicle: TNF",[3]; 50 μM,64% ± 26.1%
same,"% Inhibition of cytokine release, relative to vehicle: TNF",[3]; 100 μM,52% ± 22.7%
Cell permeable NFAT inhibitor (11R-VIVIT) (peptide),"% Inhibition of cytokine release, relative to vehicle (TNF; LPS-stimulated human whole blood, 50 µM 11R-VIVIT)",[5],79%
